Patent publication US10000474B2, “Histone deacetylase inhibitors and uses thereof” (MUSC FOUNDATION FOR RESEARCH DEVELOPMENT, priority 2014, dated 2018)
Structures can show the parent of a compound that is named as a salt.

Experiments:
Type in all cases: biochemical
Conditions in all cases: test concentration not given; average of triplicate
Recombinant human HDAC8 = biological target: T1, Recombinant human HDAC8 (Homo sapiens, UniProt Q9BY41); assay: HDAC inhibitory assay, HDAC8 (Ac-RHK(Ac)K(Ac)-AMC substrate)
T1 construct: purchased BPS Biosciences
T1 sequence (Q9BY41 1-377): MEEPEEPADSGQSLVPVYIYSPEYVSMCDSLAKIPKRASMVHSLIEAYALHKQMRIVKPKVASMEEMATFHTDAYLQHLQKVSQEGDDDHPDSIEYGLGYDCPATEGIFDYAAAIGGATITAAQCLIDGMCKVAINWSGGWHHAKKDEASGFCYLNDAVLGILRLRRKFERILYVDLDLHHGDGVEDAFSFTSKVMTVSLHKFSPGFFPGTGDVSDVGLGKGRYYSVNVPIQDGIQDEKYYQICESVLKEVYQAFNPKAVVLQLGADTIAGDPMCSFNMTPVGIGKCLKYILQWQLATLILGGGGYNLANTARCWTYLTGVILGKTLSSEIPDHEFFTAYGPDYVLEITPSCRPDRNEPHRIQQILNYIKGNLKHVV
Procedure: (§1) The compounds of Examples 1-12 and 14-16 were evaluated for their ability to act as inhibitors of human HDAC. The compound of Example 13 was not tested. Recombinant human HDAC1, HDAC2, HDAC3/NcoR2, HDAC5, HDAC6, HDAC8, HDAC9, HDAC10 and HDAC11 were purchased from BPS Biosciences. Recombinant human HDAC4 and HDAC7 were purchased from Millipore. The substrate Boc-Lys(Ac)-AMC and Boc-Lys(Tfa)-AMC were purchased from Bachem. The substrate Ac-RHK(Ac)K(Ac)-AMC was purchased from Enzo Life Sciences. Due to the different specific activities of each isoform, different amount of enzyme was used in each isoform screening assay. In these assays, trichostatin A (TSA), suberanilohydroxamic acid and diphenylacetohydroxamic acid (DPAHA) were employed as positive controls. All determinations were carried out in triplicate, and reported values were the average of these determinations, which in no case varied by more than 5%.
For evaluating the inhibition of HDAC8, 10 μl of test samples were first incubated with 25 ng HDAC8 (specific activity 298 pmol/min/μg). Then 25 μl of the fluorogenic peptide from p53 residues 379-382 (Ac-RHK(Ac)K(Ac)-AMC, 50 μM final concentration) was added and incubated at 37° C. for 30-60 min, and followed by adding 50 μl of developer (1 mg/ml trypsin and 1 uM TSA). The last step was to read the samples in a SpectraMax M5 plate reader (Molecular Devices) at an excitation wavelength of 360 nm and an emission wavelength of 460 nm.

Recombinant human HDAC11 = biological target: T2, Recombinant human HDAC11 (Homo sapiens, UniProt Q96DB2); assay: HDAC inhibitory assay, HDAC11 (Boc-Lys(Tfa)-AMC substrate)
T2 construct: purchased BPS Biosciences
T2 sequence (Q96DB2 1-347): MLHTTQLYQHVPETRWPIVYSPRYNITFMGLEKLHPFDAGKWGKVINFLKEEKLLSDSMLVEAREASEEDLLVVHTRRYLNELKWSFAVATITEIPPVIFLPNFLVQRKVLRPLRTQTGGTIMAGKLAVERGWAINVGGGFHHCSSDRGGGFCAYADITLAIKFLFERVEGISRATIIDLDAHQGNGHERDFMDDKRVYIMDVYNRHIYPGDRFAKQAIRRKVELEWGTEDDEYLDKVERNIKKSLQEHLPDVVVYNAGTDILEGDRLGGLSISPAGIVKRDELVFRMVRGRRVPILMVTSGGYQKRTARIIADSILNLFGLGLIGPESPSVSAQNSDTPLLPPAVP
Procedure: as §1
(§2) For evaluating the inhibition of class IIa HDACs (HDAC4, HDAC5, HDAC7 and HDAC9) and class IV HDAC (HDAC11), 10 μl of test samples were first incubated with 1 ng HDAC4 (specific activity=15400 pmol/min/μg), 5 ng HDAC5 (specific activity=2521 pmol/min/μg), 1 ng HDAC7 (specific activity=26340 pmol/min/μg), 5 ng HDAC9 (specific activity=3000 pmol/min/μg), and 500 ng HDAC11 (specific activity=1.8 pmol/min/μg) respectively. Then 25 μl of the Boc-Lys(Tfa)-AMC substrate (50 μM final concentration) was added and incubated at 37° C. for 30-60 min, and followed by adding 50 μl of developer. The last step was to read the samples in a SpectraMax M5 plate reader (Molecular Devices) at an excitation wavelength of 360 nm and an emission wavelength of 460 nm.

Recombinant human HDAC1 = biological target: T3, Recombinant human HDAC1 (Homo sapiens, UniProt Q13547); assay: HDAC inhibitory assay, HDAC1 (Boc-Lys(Ac)-AMC substrate)
T3 construct: purchased BPS Biosciences
T3 sequence (Q13547 whole entry): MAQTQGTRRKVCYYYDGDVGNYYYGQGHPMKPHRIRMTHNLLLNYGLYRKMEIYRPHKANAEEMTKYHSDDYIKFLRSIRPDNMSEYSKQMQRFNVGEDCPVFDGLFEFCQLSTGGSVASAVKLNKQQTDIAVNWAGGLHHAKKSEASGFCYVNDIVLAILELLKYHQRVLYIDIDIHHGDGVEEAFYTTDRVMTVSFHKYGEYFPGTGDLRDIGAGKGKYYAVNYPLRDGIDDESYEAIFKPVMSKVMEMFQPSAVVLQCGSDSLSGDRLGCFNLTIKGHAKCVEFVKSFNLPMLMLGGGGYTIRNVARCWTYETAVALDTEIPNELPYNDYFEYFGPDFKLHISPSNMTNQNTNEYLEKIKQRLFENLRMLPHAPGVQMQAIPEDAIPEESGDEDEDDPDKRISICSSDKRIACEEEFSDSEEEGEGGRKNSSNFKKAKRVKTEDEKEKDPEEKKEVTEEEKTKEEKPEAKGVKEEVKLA
Procedure: as §1
(§3) Then 25 μl of the Boc-Lys(Ac)-AMC substrate (50 μM final concentration) was added and incubated at 37° C. for 30-60 min, and followed by adding 50 μl of developer (1 mg/ml trypsin and 1 μM TSA). The last step was reading the samples in a SpectraMax M5 plate reader (Molecular Devices) at an excitation wavelength of 360 nm and an emission wavelength of 460 nm.

Recombinant human HDAC9 = biological target: T4, Recombinant human HDAC9 (Homo sapiens, UniProt Q9UKV0); assay: HDAC inhibitory assay, HDAC9 (Boc-Lys(Tfa)-AMC substrate)
T4 construct: purchased BPS Biosciences
T4 sequence (Q9UKV0 whole entry): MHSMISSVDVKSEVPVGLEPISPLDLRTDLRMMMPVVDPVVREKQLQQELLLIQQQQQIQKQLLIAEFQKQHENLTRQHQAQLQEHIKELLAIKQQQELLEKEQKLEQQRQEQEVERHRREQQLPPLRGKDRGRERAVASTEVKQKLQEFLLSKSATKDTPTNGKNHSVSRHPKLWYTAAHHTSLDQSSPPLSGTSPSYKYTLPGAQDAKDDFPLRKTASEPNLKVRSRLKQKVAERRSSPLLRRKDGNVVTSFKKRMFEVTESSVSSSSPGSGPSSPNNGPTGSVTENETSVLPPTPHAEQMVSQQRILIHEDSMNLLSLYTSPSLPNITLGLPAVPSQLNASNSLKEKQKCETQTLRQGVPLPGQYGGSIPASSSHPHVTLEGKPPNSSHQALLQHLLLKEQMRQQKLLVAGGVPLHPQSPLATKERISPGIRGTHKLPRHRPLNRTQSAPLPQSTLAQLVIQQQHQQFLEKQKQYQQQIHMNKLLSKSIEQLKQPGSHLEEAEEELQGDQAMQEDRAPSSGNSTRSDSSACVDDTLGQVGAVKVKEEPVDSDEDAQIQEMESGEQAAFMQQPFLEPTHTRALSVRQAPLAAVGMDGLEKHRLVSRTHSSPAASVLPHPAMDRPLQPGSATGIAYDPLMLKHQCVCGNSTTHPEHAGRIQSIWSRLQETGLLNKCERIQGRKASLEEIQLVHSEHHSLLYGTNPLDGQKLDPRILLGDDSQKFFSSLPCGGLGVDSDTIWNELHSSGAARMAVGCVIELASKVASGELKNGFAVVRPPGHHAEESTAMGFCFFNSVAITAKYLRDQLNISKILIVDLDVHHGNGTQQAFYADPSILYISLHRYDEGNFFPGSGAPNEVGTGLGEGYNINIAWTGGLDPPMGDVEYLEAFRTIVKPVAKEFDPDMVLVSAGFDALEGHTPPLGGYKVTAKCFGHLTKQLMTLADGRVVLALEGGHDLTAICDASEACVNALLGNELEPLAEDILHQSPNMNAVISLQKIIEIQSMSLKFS
Procedure: as §1, §2

Recombinant human HDAC2 = biological target: T5, Recombinant human HDAC2 (Homo sapiens, UniProt Q92769); assay: HDAC inhibitory assay, HDAC2 (Boc-Lys(Ac)-AMC substrate)
T5 construct: purchased BPS Biosciences
T5 sequence (Q92769 whole entry): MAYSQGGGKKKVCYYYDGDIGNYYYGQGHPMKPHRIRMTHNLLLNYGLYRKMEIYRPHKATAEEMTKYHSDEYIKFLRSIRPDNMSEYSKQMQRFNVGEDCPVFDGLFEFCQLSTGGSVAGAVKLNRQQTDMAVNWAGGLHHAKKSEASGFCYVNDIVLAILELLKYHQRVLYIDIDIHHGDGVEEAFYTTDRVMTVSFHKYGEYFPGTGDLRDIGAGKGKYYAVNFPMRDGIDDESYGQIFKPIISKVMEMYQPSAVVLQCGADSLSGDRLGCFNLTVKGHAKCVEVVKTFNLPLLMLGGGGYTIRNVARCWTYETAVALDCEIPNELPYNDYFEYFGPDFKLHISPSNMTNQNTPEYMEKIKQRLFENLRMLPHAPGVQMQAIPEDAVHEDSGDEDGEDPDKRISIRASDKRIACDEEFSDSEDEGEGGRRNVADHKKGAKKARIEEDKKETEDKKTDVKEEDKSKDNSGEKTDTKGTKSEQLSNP
Procedure: as §1, §3

Recombinant human HDAC4 = biological target: T6, Recombinant human HDAC4 (Homo sapiens, UniProt P56524); assay: HDAC inhibitory assay, HDAC4 (Boc-Lys(Tfa)-AMC substrate)
T6 construct: purchased Millipore
T6 sequence (P56524 whole entry): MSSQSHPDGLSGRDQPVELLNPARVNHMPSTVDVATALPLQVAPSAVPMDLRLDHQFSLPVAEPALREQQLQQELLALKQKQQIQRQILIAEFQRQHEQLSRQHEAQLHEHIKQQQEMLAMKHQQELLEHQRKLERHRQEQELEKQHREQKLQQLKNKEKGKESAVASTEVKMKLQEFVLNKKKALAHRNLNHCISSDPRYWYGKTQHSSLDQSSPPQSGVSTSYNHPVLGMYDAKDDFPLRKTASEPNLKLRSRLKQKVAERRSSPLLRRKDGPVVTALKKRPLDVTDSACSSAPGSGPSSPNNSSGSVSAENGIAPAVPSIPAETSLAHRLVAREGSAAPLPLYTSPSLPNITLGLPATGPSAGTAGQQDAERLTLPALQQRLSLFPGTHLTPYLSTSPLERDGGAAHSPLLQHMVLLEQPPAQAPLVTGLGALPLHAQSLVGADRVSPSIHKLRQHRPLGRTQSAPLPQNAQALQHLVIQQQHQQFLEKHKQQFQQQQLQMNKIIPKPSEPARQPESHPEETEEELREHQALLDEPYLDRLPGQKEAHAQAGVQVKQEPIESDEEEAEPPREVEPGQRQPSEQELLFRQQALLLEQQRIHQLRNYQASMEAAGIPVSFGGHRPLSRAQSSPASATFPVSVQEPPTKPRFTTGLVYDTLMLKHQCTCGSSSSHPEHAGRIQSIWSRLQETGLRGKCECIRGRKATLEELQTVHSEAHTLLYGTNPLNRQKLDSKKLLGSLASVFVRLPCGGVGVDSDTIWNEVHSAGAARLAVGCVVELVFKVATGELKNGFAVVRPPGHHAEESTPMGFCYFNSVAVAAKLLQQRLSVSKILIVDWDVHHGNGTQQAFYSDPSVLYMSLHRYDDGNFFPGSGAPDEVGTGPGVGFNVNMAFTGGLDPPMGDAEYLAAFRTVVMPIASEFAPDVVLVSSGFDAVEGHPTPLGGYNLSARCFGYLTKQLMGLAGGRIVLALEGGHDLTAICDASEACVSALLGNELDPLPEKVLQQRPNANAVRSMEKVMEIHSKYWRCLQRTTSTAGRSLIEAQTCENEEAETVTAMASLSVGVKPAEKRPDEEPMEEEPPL
Procedure: as §1, §2

Compound	HDAC 8 inhibitory activity (Recombinant human HDAC8)	HDAC 11 inhibitory activity (Recombinant human HDAC11)	HDAC 1 inhibitory activity (Recombinant human HDAC1)	HDAC 9 inhibitory activity (Recombinant human HDAC9)	HDAC 2 inhibitory activity (Recombinant human HDAC2)	HDAC 4 inhibitory activity (Recombinant human HDAC4)
O=C(NCCCCNC(=O)C(c1ccccc1)c1ccccc1)c1coc(-c2ccccc2O)n1 [Example 10, N-(4-(2,2-Diphenylacetamido)butyl)-2-(2-hydroxyphenyl)oxazole-4-carboxamide]	0%	30.1%	27.2%	9.0%	0%	4.8%
O=C(NCCC(c1ccccc1)c1ccccc1)c1coc(-c2ccccc2O)n1 [Example 4, N-(3,3-Diphenylpropyl)-2-(2-hydroxyphenyl)oxazole-4-carboxamide]	7.2%	45.2%	35.9%	28.2%	28.7%	25.8%
O=C(NCCc1c[nH]c2ccccc12)c1coc(-c2ccccc2O)n1 [Example 8, N-(2-(1H-Indol-3-yl)ethyl)-2-(2-hydroxyphenyl)oxazole-4-carboxamide]	7.7%	26.0%	41.7%	18.4%	36.0%	7.5%
O=C(NCc1ccc(-c2ccccc2)cc1)c1coc(-c2ccccc2O)n1 [Example 6, N-([1,1′-Biphenyl]-4-ylmethyl)-2-(2-hydroxyphenyl)oxazole-4-carboxamide]	17.9%	47.8%	61.4%	20.8%	52.2%	24.4%
O=C(NCCCCN1C(=O)c2ccccc2C1=O)c1coc(-c2ccccc2O)n1 [Example 9, N-(4-(1,3-Dioxoisoindolin-2-yl)butyl)-2-(2-hydroxyphenyl)oxazole-4-carboxamide]	9.6%	33.8%	35.2%	16.4%	25.4%	17.5%
O=C(Nc1ccc(-c2ccccc2)cc1)c1coc(-c2ccccc2O)n1 [Example 5, N-([1,1′-Biphenyl]-4-yl)-2-(2-hydroxyphenyl)oxazole-4-carboxamide]	7.2%	28.4%	62.2%	32.4%	31.9%	25.5%
O=C(Nc1ccccc1)c1coc(-c2ccccc2O)n1 [Example 1, 2-(2-Hydroxyphenyl)-N-phenyloxazole-4-carboxamide]	0%	21.8%	62.5%	20.5%	29.5%	17.1%
O=C(NC(c1ccccc1)c1ccccc1)c1coc(-c2ccccc2O)n1 [Example 2, N-Benzhydryl-2-(2-hydroxyphenyl)oxazole-4-carboxamide]	23.3%	23.1%	68.0%	33.3%	54.1%	20.7%

The remaining lines, values ahead:

HDAC 8 inhibitory activity (Recombinant human HDAC8)	HDAC 11 inhibitory activity (Recombinant human HDAC11)	HDAC 1 inhibitory activity (Recombinant human HDAC1)	HDAC 9 inhibitory activity (Recombinant human HDAC9)	HDAC 2 inhibitory activity (Recombinant human HDAC2)	HDAC 4 inhibitory activity (Recombinant human HDAC4)	Compound
14.0%	39.1%	32.2%	16.4%	19.7%	6.5%	O=C(NCCCCNCCC(c1ccccc1)c1ccccc1)c1coc(-c2ccccc2O)n1 [Example 12, N-(4-((3,3-Diphenylpropyl)amino)butyl)-2-(2-hydroxyphenyl)oxazole-4-carboxamide hydrochloride]
15.0%	46.6%	25.5%	14.2%	32.0%	28.1%	O=C(CNC(=O)c1coc(-c2ccccc2O)n1)Nc1ccccc1 [Example 16, 2-(2-Hydroxyphenyl)-N-(2-oxo-2-(phenylamino)ethyl)oxazole-4-carboxamide]
20.0%	49.2%	70.1%	26.3%	56.5%	24.2%	O=C(O)c1ccc(CNC(=O)c2coc(-c3ccccc3O)n2)cc1 [Example 14, 4-((2-(2-Hydroxyphenyl)oxazole-4-carboxamido)methyl)benzoic acid]
0%	69.9%	43.3%	70.2%	1.3%	55.8%	O=C(NCCCCNC(=S)NCCC(c1ccccc1)c1ccccc1)c1coc(-c2ccccc2O)n1 [Example 11, N-(4-(3-(3,3-Diphenylpropyl)thioureido)butyl)-2-(2-hydroxyphenyl)oxazole-4-carboxamide]
0%	20.1%	47%	24.3%	41.3%	18.3%	O=C(Nc1ccccc1)c1ccc(CNC(=O)c2coc(-c3ccccc3O)n2)cc1 [Example 15, 2-(2-Hydroxyphenyl)-N-(4-(phenylcarbamoyl)benzyl)oxazole-4-carboxamide]
